According to US6872805B2 (Bristol-Myers Squibb Company, priority 2000, dated 2005):

What follows are molecules tested against HCV NS3/4A protease complex (Hepatitis C virus genotype 1a, UniProt P27958, C1454S/C1711G) (assay: Recombinant HCV NS3/4A protease complex FRET peptide assay (strain not stated)). Conditions: IC50, NS3/4A protease enzyme assay, strain not stated; activity ranges.
Assay type: biochemical
Text: The purpose of this in vitro assay was to measure the inhibition of HCV NS3 protease complexes, derived from the BMS, H77C or J416S strains, as described below, by compounds of the present invention.
Serum from an HCV-infected patient was obtained from Dr. T. Wright, San Francisco Hospital. An engineered full-length cDNA template of the HCV genome (BMS strain) was constructed from DNA fragments obtained by reverse transcription-PCR (RT-PCR) of serum RNA and using primers selected on the basis of homology between other genotype 1a strains. […] The infectious clones, H77C (1a genotype) and J4L6S (1b genotype) were obtained from R. Purcell (NIH) and the sequences are published in genebank (AAB67036, see Yanagi, M., Purcell, R. H., Emerson, S. U. and Bukh, J. Proc. Natl. Acad. Sci. U.S.A. 94(16),8738-8743 (1997); AF054247, see Yanagi, M., St Claire, M., Shapiro, M., Emerson, S. U., Purcell, R. H. and Bukh, J, Virology 244 (1), 161-172. (1998)).
The BMS, H77C and J4L6S strains were used for production of recombinant NS3/4A protease complexes. DNA encoding the recombinant HCV NS3/4A protease complex (amino acid 1027 to 1711) for these strains were manipulated as described by P. Gallinari et al. (see Gallinari P, Paolini C, Brennan D, Nardi C, Steinkuhler C, De Francesco R. Biochemistry. 38(17):5620-32, (1999)). Briefly, a three-lysine solubilizing tail was added at the 3′-end of the NS4A coding region. The cysteine in the P1 position of the NS4A-NS4B cleavage site (amino acid 1711) was changed to a glycine to avoid the proteolytic cleavage of the lysine tag. Furthermore, a cysteine to serine mutation was introduced by PCR at amino acid position 1454 to prevent the autolytic cleavage in the NS3 helicase domain. The variant DNA fragment was cloned in the pET21b bacterial expression vector and the NS3/4A complex was expressed in E. coli BL21 (DE3) following the protocol described by P. Gallinari et al. (see Gallinari P, Brennan D, Nardi C, Brunetti M, Tomei L, Steinkuhler C, De Francesco R., J Virol. 72(8):6758-69 (1998)) with modifications. Briefly, NS3/4A expression was induced with 0.5 mM IPTG for 22 hr at 20° C. […] The cells were resuspended in lysis buffer (10 mL/g) consisting of 25 mM HEPES, pH 7.5, 20% glycerol, 500 mM NaCl, 0.5% Triton-X100, 1 ug/ml lysozyme, 5 mM MgCl2, 1 ug/ml DNaseI 5 mM β-Mercaptoethanol (βME), Protease inhibitor—EDTA free, homogenized and incubated for 20 mins at 4° C. The homogenate was sonicated and clarified by ultra-centrifugation at 235000 g for 1 hr at 4° C. Imidazole was added to the supernatant to a final concentration of 15 mM and the pH adjusted to 8.0. The crude protein extract was loaded on a Ni-NTA column pre-equilibrated with buffer B (25 mM HEPES, pH 8.0, 20% glycerol, 500 mM NaCl, 0.5% Triton-X100, 15 mM imidazole, 5 mM βME). The sample was loaded at a flow rate of 1 mL/min. The column was washed with 15 column volumes of buffer C (same as buffer B except with 0.2% Triton-X100). The protein was eluted with 5 column volumes of 200 mM Imidazole in buffer.
NS3/4A protease complex-containing fractions were pooled and loaded on a desalting column Superdex-S200 pre-equilibrated with buffer D (25 mM HEPES, pH 7.5, 20% glycerol, 300 mM NaCl, 0.2% Triton-X100, 10 mM βME). Sample was loaded at a flow rate of 1 mL/min. NS3/4A protease complex-containing fractions were pooled and concentrated to approximately 0.5 mg/ml.

Chain of HCV NS3/4A protease complex (P27958 1027-1711, stated change not applied): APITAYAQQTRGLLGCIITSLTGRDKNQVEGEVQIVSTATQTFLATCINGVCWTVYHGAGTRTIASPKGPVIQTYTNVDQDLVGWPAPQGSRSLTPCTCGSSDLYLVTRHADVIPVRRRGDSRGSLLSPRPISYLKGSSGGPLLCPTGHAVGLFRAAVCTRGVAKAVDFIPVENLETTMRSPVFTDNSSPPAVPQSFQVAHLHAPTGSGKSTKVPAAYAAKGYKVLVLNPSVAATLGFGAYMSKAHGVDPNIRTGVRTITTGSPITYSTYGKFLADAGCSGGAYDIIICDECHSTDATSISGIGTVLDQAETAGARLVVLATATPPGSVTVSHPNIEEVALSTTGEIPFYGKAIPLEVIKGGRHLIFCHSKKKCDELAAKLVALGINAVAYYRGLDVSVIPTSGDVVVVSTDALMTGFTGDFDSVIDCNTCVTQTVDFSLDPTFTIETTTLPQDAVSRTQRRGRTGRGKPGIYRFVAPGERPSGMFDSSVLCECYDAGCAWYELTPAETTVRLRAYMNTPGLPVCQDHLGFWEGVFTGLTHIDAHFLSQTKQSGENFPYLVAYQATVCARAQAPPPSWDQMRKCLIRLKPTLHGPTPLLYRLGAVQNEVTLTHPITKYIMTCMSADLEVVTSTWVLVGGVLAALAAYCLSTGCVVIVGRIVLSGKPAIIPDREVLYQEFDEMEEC
Chain of HCV NS3/4A protease complex (P27958 1027-1711, stated change not applied): as above

Row | Compound | IC50 [nM]
1 | CCC1C[C@]1(NC(=O)[C@@H]1C[C@@H](Oc2cc(-c3ccccc3)nc3cc(OC)ccc23)CN1C(=O)[C@@H](NC(=O)OC(C)(C)C)C(C)C)C(=O)NS(C)(=O)=O (stereo partly shown) [Compound 1] | < 500
2 | C=CC1C[C@]1(NC(=O)[C@@H]1C[C@@H](Oc2cc(-c3ccccc3)nc3cc(OC)ccc23)CN1C(=O)[C@@H](NC(=O)OC(C)(C)C)C(C)(C)C)C(=O)N[S+]([O-])C(C)(C)C (stereo partly shown) [Compound 62] | < 5000
3 | C=CC1C[C@]1(NC(=O)[C@@H]1C[C@@H](Oc2cc(-c3ccccc3)nc3cc(OC)ccc23)CN1C(=O)C(NC(=O)OC(C)(C)C)C(C)(C)C)C(=O)NS(=O)(=O)c1c(C(C)C)cc(C(C)C)cc1C(C)C (stereo partly shown) [Compound 64] | < 5000
4 | C=CC1C[C@]1(NC(=O)[C@@H]1C[C@@H](Oc2cc(-c3ccccc3)nc3cc(OC)ccc23)CN1C(=O)[C@@H](NC(=O)OC(C)(C)C)C(C)(C)C)C(=O)NS(=O)(=O)c1ccc(-c2ccccc2)cc1 (stereo partly shown) [Compound 65] | < 500
5 | C=CC1C[C@]1(NC(=O)[C@@H]1C[C@@H](Oc2cc(-c3ccccc3)nc3cc(OC)ccc23)CN1C(=O)[C@@H](NC(=O)OC(C)(C)C)C(C)(C)C)C(=O)NS(=O)(=O)c1ccc(OC(F)(F)F)cc1 (stereo partly shown) [Compound 66] | < 500
6 | CCC1CC1(NC(=O)[C@@H]1C[C@@H](Oc2cc(-c3ccccc3)nc3cc(OC)ccc23)CN1C(=O)[C@H](CC1CCCCC1)NC(=O)OC(C)(C)C)C(=O)NS(C)(=O)=O (stereo partly shown) [Compound 74] | < 5000
7 | CCC1CC1(NC(=O)[C@@H]1C[C@@H](Oc2cc(-c3ccccc3)nc3cc(OC)ccc23)CN1C(=O)[C@H](CC1CCCCC1)NC(=O)OC(C)(C)C)C(=O)NS(C)(=O)=O (stereo partly shown) [Compound 75] | < 500
8 | C=CC1CC1(NC(=O)[C@@H]1C[C@@H](Oc2cc(-c3ccccc3)nc3cc(OC)ccc23)CN1C(=O)[C@H](CC1CCCCC1)NC(=O)OC(C)(C)C)C(=O)NS(C)(=O)=O (stereo partly shown) [Compound 76] | < 500
9 | CCC1CC1(NC(=O)[C@@H]1C[C@@H](Oc2cc(-c3ccccc3)nc3cc(OC)ccc23)CN1C(=O)[C@H](CC1CCCCC1)NC(=O)OC(C)(C)C)C(=O)NS(=O)(=O)C1CC1 (stereo partly shown) [Compound 77] | < 50000
10 | CCC1CC1(NC(=O)[C@@H]1C[C@@H](Oc2cc(-c3ccccc3)nc3cc(OC)ccc23)CN1C(=O)[C@H](CC1CCCCC1)NC(=O)OC(C)(C)C)C(=O)NS(=O)(=O)C1CC1 (stereo partly shown) [Compound 78] | < 50
11 | C=CC1CC1(NC(=O)[C@@H]1C[C@@H](Oc2cc(-c3ccccc3)nc3cc(OC)ccc23)CN1C(=O)[C@H](CC1CCCCC1)NC(=O)OC(C)(C)C)C(=O)NS(=O)(=O)C1CC1 (stereo partly shown) [Compound 79] | < 500
12 | CCC1CC1(NC(=O)[C@@H]1C[C@@H](Oc2cc(-c3ccccc3)nc3cc(OC)ccc23)CN1C(=O)[C@H](CC1CCCCC1)NC(=O)OC(C)(C)C)C(=O)NS(=O)(=O)C(F)(F)F (stereo partly shown) [Compound 80] | < 5000
13 | C=CC1CC1(NC(=O)[C@@H]1C[C@@H](Oc2cc(-c3ccccc3)nc3cc(OC)ccc23)CN1C(=O)[C@H](CC1CCCCC1)NC(=O)OC(C)(C)C)C(=O)NS(=O)(=O)C(F)(F)F (stereo partly shown) [Compound 81] | < 5000
14 | C=CC1CC1(NC(=O)[C@@H]1C[C@@H](Oc2cc(-c3ccccc3)nc3cc(OC)ccc23)CN1C(=O)[C@H](CC1CCCCC1)NC(=O)OC(C)(C)C)C(=O)NS(=O)(=O)C(F)(F)F (stereo partly shown) [Compound 82] | < 50000
15 | C=CC1CC1(NC(=O)[C@@H]1C[C@@H](Oc2cc(-c3ccccc3)nc3cc(OC)ccc23)CN1C(=O)[C@H](CC(C)C)NC(=O)OC(C)(C)C)C(=O)NS(=O)(=O)C(F)(F)F (stereo partly shown) [Compound 84] | < 5000
16 | C=CC1CC1(NC(=O)[C@@H]1C[C@@H](Oc2cc(-c3ccccc3)nc3cc(OC)ccc23)CN1C(=O)[C@@H](NC(=O)OC(C)(C)C)C(C)C)C(=O)NS(=O)(=O)C(F)(F)F (stereo partly shown) [Compound 85] | < 500
17 | C=CC1CC1(NC(=O)[C@@H]1C[C@@H](Oc2cc(-c3ccccc3)nc3cc(OC)ccc23)CN1C(=O)[C@@H](NC(=O)OC(C)(C)C)C(C)(C)C)C(=O)NS(C)(=O)=O (stereo partly shown) [Compound 88] | < 500
18 | C=CC1CC1(NC(=O)[C@@H]1C[C@@H](Oc2cc(-c3ccccc3)nc3cc(OC)ccc23)CN1C(=O)[C@H](CC(C)C)NC(=O)OC(C)(C)C)C(=O)NS(C)(=O)=O (stereo partly shown) [Compound 90] | < 500
19 | C=CC1CC1(NC(=O)[C@@H]1C[C@@H](Oc2cc(-c3ccccc3)nc3cc(OC)ccc23)CN1C(=O)[C@@H](NC(=O)OC(C)(C)C)C(C)C)C(=O)NS(=O)(=O)C1CC1 (stereo partly shown) [Compound 92] | < 50
20 | C=CC1CC1(NC(=O)[C@@H]1C[C@@H](Oc2cc(-c3ccccc3)nc3cc(OC)ccc23)CN1C(=O)[C@H](CC(C)C)NC(=O)OC(C)(C)C)C(=O)NS(=O)(=O)C1CC1 (stereo partly shown) [Compound 93] | < 50
21 | C=CC1CC1(NC(=O)OC(C)(C)C)C(=O)N1C[C@H](Oc2cc(-c3ccccc3)nc3cc(OC)ccc23)CC1C(=O)N[C@]1(C(=O)NS(=O)(=O)C2CC2)C[C@H]1C=C (stereo partly drawn) [Compound 97, {1S-[2S-(1R-cyclopropanesulfonylamino-carbonyl-2S-vinylcyclopropylcarbamoyl)-4R-(7-methoxy-2-phenyl-quinolin-4-yloxy)-pyrrolidine-1-carbonyl]-2-vinyl-cyclopropyl}-carbamic acid tert-butyl ester] | < 500
22 | COc1ccc2c(O[C@@H]3C[C@@H](C(=O)NC4(C(=O)NS(=O)(=O)C5CC5)CC45CCC5)N(C(=O)[C@@H](NC(=O)OC(C)(C)C)C(C)C)C3)cc(-c3ccccc3)nc2c1 (stereo partly shown) [Compound 138] | < 5000
23 | COc1ccc2c(OC3C[C@@H](C(=O)NC4(C(=O)NS(=O)(=O)C5CC5)CC45CCCC5)N(C(=O)[C@@H](NC(=O)OC(C)(C)C)C(C)(C)C)C3)cc(-c3ccccc3)nc2c1 (stereo partly shown) [Compound 139, {1-[2-(1-Cyclopropanesulfonylaminocarbonyl-spiro[2.4]hept-1-ylcarbamoyl)-4-(7-methoxy-2-phenyl-quinolin-4-yloxy)-pyrrolidine-1-carbonyl]-2,2-dimethyl-propyl}carbamic acid tert-butyl ester] | < 5000

Same assay, conditions: IC50, separated isomers of Compound 97; strain not stated

Row | Compound | IC50 [nM]
24 | C=CC1CC1(NC(=O)OC(C)(C)C)C(=O)N1C[C@H](Oc2cc(-c3ccccc3)nc3cc(OC)ccc23)CC1C(=O)N[C@]1(C(=O)NS(=O)(=O)C2CC2)C[C@H]1C=C (stereo partly drawn) [higher RF isomer, {1S-[2S-(1R-cyclopropanesulfonylamino-carbonyl-2S-vinylcyclopropylcarbamoyl)-4R-(7-methoxy-2-phenyl-quinolin-4-yloxy)-pyrrolidine-1-carbonyl]-2-vinyl-cyclopropyl}-carbamic acid tert-butyl ester] | 250
25 | C=CC1CC1(NC(=O)OC(C)(C)C)C(=O)N1C[C@H](Oc2cc(-c3ccccc3)nc3cc(OC)ccc23)CC1C(=O)N[C@]1(C(=O)NS(=O)(=O)C2CC2)C[C@H]1C=C (stereo partly drawn) [lower RF isomer, {1S-[2S-(1R-cyclopropanesulfonylamino-carbonyl-2S-vinylcyclopropylcarbamoyl)-4R-(7-methoxy-2-phenyl-quinolin-4-yloxy)-pyrrolidine-1-carbonyl]-2-vinyl-cyclopropyl}-carbamic acid tert-butyl ester] | 24
